Laboratory results: the Deep4Chem optical property database

Test: photoluminescence quantum yield (fraction); solvent given as SMILES

Structure (SMILES): Cc1ccc(C#Cc2ccc(C#Cc3ccc(C#Cc4ccccc4C#N)cc3C#N)cc2C#N)cc1
- photoluminescence quantum yield (in ClC(Cl)Cl): 0.96

Structure (SMILES): COc1ccc(-c2nc(C(C)=O)c(C)o2)cc1
- photoluminescence quantum yield (in CC#N): 0.056
- photoluminescence quantum yield (in CCO): 0.053
- photoluminescence quantum yield (in CCOC(C)=O): 0.134
- photoluminescence quantum yield (in CCOCC): 0.019
- photoluminescence quantum yield (in ClCCl): 0.051

Structure (SMILES): CC(C)(C)c1ccc2c(c1)c1cc(C(C)(C)C)ccc1n2-c1nc2ccccc2nc1-n1c2ccc(C(C)(C)C)cc2c2cc(C(C)(C)C)ccc21
- photoluminescence quantum yield (in Cc1ccccc1): 0.32

Structure (SMILES): Cc1cccc2c1nc1c(=O)n(C)c(=O)nc-1n2C
- photoluminescence quantum yield (in CC#N): 0.14

Structure (SMILES): COCCOCCOCCOCC(COCCOCCOCCOC)Oc1cc(/C=C/c2ccc(/C=C(\C#N)c3ccccc3)cc2)c(OC(COCCOCCOCCOC)COCCOCCOCCOC)cc1/C=C/c1ccc(/C=C(\C#N)c2ccccc2)cc1
- photoluminescence quantum yield (in ClCCl): 0.72

Structure (SMILES): CC1=[N+]2C(=C(c3ccc4c(c3)Cc3ccccc3-4)c3ccc(C)n3[B-]2(F)F)C=C1c1cc2n(c1)[B-](F)(F)[N+]1=CC=CC1=C2c1c(C)cc(C)cc1C
- photoluminescence quantum yield (in C1CCCCC1): 0.65
- photoluminescence quantum yield (in CCOC(C)=O): 0.11

Structure (SMILES): CCC(CC)COC1=CC2=C3c4cc(OCC(CC)CC)c(-c5cccs5)n4[B-](F)(F)[n+]4nnn(c43)[B-](F)(F)[N+]2=C1c1cccs1
- photoluminescence quantum yield (in C1CCOC1): 0.06
- photoluminescence quantum yield (in ClCCl): 0.06

Structure (SMILES): COC(=O)/C(C#N)=c1\s/c(=c2/s/c(=C(/C#N)C(=O)OC)c3cc(-c4ccc(C)cc4)sc23)c2sc(-c3ccc(C)cc3)cc12
- photoluminescence quantum yield (in Cc1ccccc1): 0.325

Structure (SMILES): COc1ccc(-c2csc(/C(C#N)=C/c3ccccc3Cl)n2)cc1
- photoluminescence quantum yield (in CC#N): 0.062

Structure (SMILES): CCCCCCN1C(=O)c2cc(-c3ccc(-n4c5ccccc5c5ccccc54)cc3)c(-c3ccc(-n4c5ccccc5c5ccccc54)cc3)cc2C1=O
- photoluminescence quantum yield (in ClC(Cl)Cl): 0.78
- photoluminescence quantum yield (in c1ccc2c(c1)c1ccccc1n2-c1ccc(-c2ccc(-n3c4ccccc4c4ccccc43)cc2)cc1): 0.7

Structure (SMILES): c1ccc(C2CCN3COc4c5ccccc5c5c6c7c(c2c3c46)C(c2ccccc2)CCN7CO5)cc1 (stereo unspecified)
- photoluminescence quantum yield (in C1CCCCC1): 0.715
- photoluminescence quantum yield (in C1CCOC1): 0.124
- photoluminescence quantum yield (in C1COCCO1): 0.183
- photoluminescence quantum yield (in CC#N): 0.025
- photoluminescence quantum yield (in CC(C)=O): 0.046
- photoluminescence quantum yield (in CCOC(C)=O): 0.108
- photoluminescence quantum yield (in CCOCC): 0.227
- photoluminescence quantum yield (in CN(C)C=O): 0.039
- photoluminescence quantum yield (in CO): 0.023
- photoluminescence quantum yield (in CS(C)=O): 0.026
- photoluminescence quantum yield (in Cc1ccccc1): 0.871
- photoluminescence quantum yield (in ClC(Cl)Cl): 0.053
- photoluminescence quantum yield (in ClCCl): 0.066

Structure (SMILES): CN(C)c1ccc(/C=C/c2nc(/C=C/c3ccc(N(C)C)cc3)c3ccccc3n2)cc1
- photoluminescence quantum yield (in ClCCl): 0.02

Structure (SMILES): O=P1(c2ccccc2)C(c2ccccc2)=Cc2ccccc21 (stereo unspecified)
- photoluminescence quantum yield (in C1CCOC1): 0.3
- photoluminescence quantum yield (in ClCCl): 0.85

Structure (SMILES): F[B-]1(F)n2c(nc3c4ccccc4c4ccccc4c32)-c2ccc3ccccc3[n+]21
- photoluminescence quantum yield (in ClCCl): 0.9

Structure (SMILES): CC(C)(C)c1ccc(-c2nnc(-c3c(-n4c5ccccc5c5ccccc54)c(-n4c5ccccc5c5ccccc54)c(-n4c5ccccc5c5ccccc54)c(-n4c5ccccc5c5ccccc54)c3-n3c4ccccc4c4ccccc43)o2)cc1
- photoluminescence quantum yield (in Cc1ccccc1): 0.13

Structure (SMILES): COc1cc2c(cc1OC)C1=C[C@H](c3ccccc3)C3(C(C(=O)O[C@@H]4C[C@H]5CC[C@@H]4C5)=C(C(=O)O[C@H]4C[C@@H]5CC[C@H]4C5)N1CC2)c1ccccc1-c1ccccc13
- photoluminescence quantum yield (in ClCCl): 0.00157

Structure (SMILES): COC(=O)c1ccc(Oc2ccc3c4c(cccc24)C(=O)N(c2c(C(C)C)cccc2C(C)C)C3=O)cc1
- photoluminescence quantum yield (in ClCCl): 0.55

Structure (SMILES): F[B-]1(F)OC(c2cccc(Br)c2)=Cc2c3ccccc3c3ccccc3[n+]21
- photoluminescence quantum yield (in ClC(Cl)Cl): 0.106

Structure (SMILES): CCCCN1C(=O)c2cc(Oc3ccc(C(C)(C)C)cc3)c3c4c(Oc5ccc(C(C)(C)C)cc5)cc5c6c(cc(Oc7ccc(C(C)(C)C)cc7)c(c7c(Oc8ccc(C(C)(C)C)cc8)cc(c2c37)C1=O)c64)C(=O)N(CCCC)C5=O
- photoluminescence quantum yield (in C1CCOC1): 0.82
- photoluminescence quantum yield (in Cc1ccccc1): 0.811
- photoluminescence quantum yield (in ClC(Cl)Cl): 0.83
- photoluminescence quantum yield (in ClCCl): 0.802

Structure (SMILES): COc1ccc(-n2nc(C#N)c(N3CCCCC3)n2)cc1
- photoluminescence quantum yield (in CC#N): 0.929

Structure (SMILES): N#Cc1ccc(-n2cccc2)cc1
- photoluminescence quantum yield (in C1CCOC1): 0.024
- photoluminescence quantum yield (in CC#N): 0.024
- photoluminescence quantum yield (in CCCCCC): 0.077
- photoluminescence quantum yield (in CCOCC): 0.023
- photoluminescence quantum yield (in ClCCl): 0.022

Structure (SMILES): CN(C)CCCN1c2ccccc2Sc2ccc(C(F)(F)F)cc21
- photoluminescence quantum yield (in CC#N): 0.0011
- photoluminescence quantum yield (in CO): 0.001
- photoluminescence quantum yield (in O): 0.0014

Structure (SMILES): COc1ccc(C#Cc2ccc(C#N)cc2)cc1
- photoluminescence quantum yield (in C1COCCO1): 0.1
- photoluminescence quantum yield (in CC#N): 0.09
- photoluminescence quantum yield (in CCCCCC): 0.15
- photoluminescence quantum yield (in CCCCCCC): 0.17
- photoluminescence quantum yield (in CCCO): 0.13
- photoluminescence quantum yield (in CCOC(C)=O): 0.08
- photoluminescence quantum yield (in CS(C)=O): 0.15
- photoluminescence quantum yield (in ClC(Cl)Cl): 0.13
- photoluminescence quantum yield (in ClCCl): 0.12

Structure (SMILES): CN(C)c1ccc(/C=C/c2cnc(C#Cc3ccc(C#N)cc3)o2)cc1
- photoluminescence quantum yield (in ClCCl): 0.24

Structure (SMILES): CC[N+](CC)=c1ccc2c(C(F)(F)F)c3c(oc-2c1)-c1ccc(N(C)C)cc1CC3
- photoluminescence quantum yield (in CCO): 0.163
- photoluminescence quantum yield (in ClCCl): 0.336
- photoluminescence quantum yield (in O): 0.039

Structure (SMILES): CC(C)(C)c1ccc2c3ccccc3c3cncnc3c2c1
- photoluminescence quantum yield (in ClCCl): 0.03

Structure (SMILES): C/C=C/c1ccc(OC)c(OC)c1
- photoluminescence quantum yield (in CC#N): 0.28
- photoluminescence quantum yield (in CCCCCC): 0.35

Structure (SMILES): c1ccc(-c2nc(-c3ccc(-c4nc(-c5ccccc5)c(-c5ccccc5)[nH]4)cc3)[nH]c2-c2ccccc2)cc1
- photoluminescence quantum yield (in CC#N): 0.75
- photoluminescence quantum yield (in CS(C)=O): 0.94

Structure (SMILES): c1ccc(-c2cc(-c3ccc4ccc5c(-c6ccnc(-c7ccccn7)c6)ccc6ccc3c4c65)ccn2)nc1
- photoluminescence quantum yield (in C1CCOC1): 0.65
- photoluminescence quantum yield (in CC#N): 0.56
- photoluminescence quantum yield (in CCC#N): 0.56
- photoluminescence quantum yield (in CCCC#N): 0.58
- photoluminescence quantum yield (in CCCCCC): 0.6
- photoluminescence quantum yield (in CCCO): 0.38
- photoluminescence quantum yield (in CCO): 0.39
- photoluminescence quantum yield (in CO): 0.27
- photoluminescence quantum yield (in Cc1ccccc1): 0.56

Structure (SMILES): CC1CC=C(c2ccc(-c3ccc(C=O)s3)s2)CC1 (stereo unspecified)
- photoluminescence quantum yield (in CCO): 0.43

Structure (SMILES): Cc1cc2c3ccccc3n(C)c2c2c1c1ccccc1n2C
- photoluminescence quantum yield (in ClCCl): 0.114

Structure (SMILES): CC1(C)c2ccccc2N2c3ccccc3C3(c4cc(C#N)ccc4-c4ccc(C#N)cc43)c3cccc1c32
- photoluminescence quantum yield (in Cc1ccccc1): 0.71

Structure (SMILES): CC(C)(C)c1ccc(C#Cc2cc(C#Cc3ccc(C(C)(C)C)cc3)c(C#Cc3ccc(C(C)(C)C)cc3)c(C#Cc3ccc(C(C)(C)C)cc3)c2C#Cc2ccc(C(C)(C)C)cc2)cc1
- photoluminescence quantum yield (in ClCCl): 0.41

Structure (SMILES): F[B-]1(F)OC(c2ccc3ccccc3c2)=CC(c2ccc3ccccc3c2)=[O+]1
- photoluminescence quantum yield (in CC#N): 0.7
- photoluminescence quantum yield (in ClC(Cl)(Cl)Cl): 0.9

Structure (SMILES): C1=Cc2ccc3ccccc3c2N(c2ccccc2)B1c1ccccc1
- photoluminescence quantum yield (in C1CCCCC1): 0.04

Structure (SMILES): Cn1c(=O)c2c(ncn2C)n(C)c1=O
- photoluminescence quantum yield (in O): 0

Structure (SMILES): COc1cc(C2=CC3=C(c4c(C)cc(C)cc4C)c4cc(-c5cc(OC)c(OC)c(OC)c5)c(-c5cc(OC)c(OC)c(OC)c5)n4[B-](F)(F)[N+]3=C2c2cc(OC)c(OC)c(OC)c2)cc(OC)c1OC
- photoluminescence quantum yield (in C1CCCCC1): 0.33
- photoluminescence quantum yield (in C1CCOC1): 0.08
- photoluminescence quantum yield (in CC#N): 0.02
- photoluminescence quantum yield (in Cc1ccccc1): 0.16
- photoluminescence quantum yield (in ClCCl): 0.05

Structure (SMILES): C=C(C)C(CN1C(=O)c2cccc3c2c(cc2oc(C)nc23)C1=O)OO (stereo unspecified)
- photoluminescence quantum yield (in CCO): 0.096

Structure (SMILES): [O-][n+]1c(/C=C/c2ccc(/C=C/c3ccccc3)cc2)nc(N2CCOCC2)c2c1CCCC2
- photoluminescence quantum yield (in ClCCl): 0.04

Structure (SMILES): CCC1=C(C)C(=O)n2c1cc1c(c(C)c(C(=O)OCC(C)C)n1CC(C)C)c2=O
- photoluminescence quantum yield (in C1CCCCC1): 0.05
- photoluminescence quantum yield (in CO): 0.74
- photoluminescence quantum yield (in CS(C)=O): 0.84
- photoluminescence quantum yield (in ClC(Cl)Cl): 0.78
- photoluminescence quantum yield (in c1ccccc1): 0.22

Structure (SMILES): C/C=C/C=C/C1=NC(=C\c2ccc([O-])cc2)/C(=O)N1C
- photoluminescence quantum yield (in O): 0.0008

Structure (SMILES): C[Si]1(C)c2cc(-c3ccc(-c4cccs4)s3)ccc2C=Cc2ccc(-c3ccc(-c4cccs4)s3)cc21
- photoluminescence quantum yield (in ClCCl): 0.46

Structure (SMILES): C[Si](C)(c1cccc2ccccc12)c1c2ccccc2cc2ccccc12
- photoluminescence quantum yield (in C1CCCCC1): 0.72
- photoluminescence quantum yield (in CC#N): 0.62

Structure (SMILES): [O-]c1ccccc1-c1[nH+]c2c3cccnc3c3ncccc3c2n1-c1ccccc1
- photoluminescence quantum yield (in Cc1ccccc1): 0.125

Structure (SMILES): Cc1ccc(-c2cc(/C=C/c3ccc(N(c4ccccc4)c4ccccc4)cc3)c(-c3ccc(C)cc3)cc2/C=C/c2ccc(N(c3ccccc3)c3ccccc3)cc2)cc1
- photoluminescence quantum yield (in ClCCl): 0.74

Structure (SMILES): Cc1ccc(C(=O)c2c(C)c3ccc4cccc5c6cccc7ccc2c(c76)c3c45)cc1
- photoluminescence quantum yield (in ClCCl): 0.039

Structure (SMILES): COc1ccc(-c2ccc(-c3cc(-c4ccccn4)nc(-c4ccccn4)c3)cc2)cc1
- photoluminescence quantum yield (in ClCCl): 0.5

Structure (SMILES): O=Cc1ccc2c(c1)c1ccccc1n2-c1cc2ccccc2c2ccccc12
- photoluminescence quantum yield (in CC#N): 0.015
- photoluminescence quantum yield (in CCCCC): 0.025
- photoluminescence quantum yield (in Cc1ccccc1): 0.022
- photoluminescence quantum yield (in ClCCl): 0.03

Structure (SMILES): CC1=N/C(=C\c2cccc(N(C)C)c2)C(=O)N1C
- photoluminescence quantum yield (in C1CCOC1): 0.14
- photoluminescence quantum yield (in CC#N): 0.05
- photoluminescence quantum yield (in CCCCCC): 0.46

Structure (SMILES): CC1(C)Oc2c(c3nc4ccccc4nc3c3ccccc23)CC1Br (stereo unspecified)
- photoluminescence quantum yield (in C1CCCCC1): 0.28
- photoluminescence quantum yield (in C1CCOC1): 0.39
- photoluminescence quantum yield (in C1COCCO1): 0.44
- photoluminescence quantum yield (in CC#N): 0.49
- photoluminescence quantum yield (in CC(C)O): 0.39
- photoluminescence quantum yield (in CCCCCC): 0.25
- photoluminescence quantum yield (in CN(C)C=O): 0.34
- photoluminescence quantum yield (in CO): 0.57
- photoluminescence quantum yield (in c1ccccc1): 0.28

Structure (SMILES): C[Si]1(C)O[Si](C)(C)c2cc3nc4ccccc4c(-c4ccc(F)cc4)c3cc2[Si](C)(C)O1
- photoluminescence quantum yield (in ClCCl): 0.3

Structure (SMILES): O=C1c2cc3ccccc3cc2C2=Nc3ccc4ccccc4[n+]3[B-](F)(F)N12
- photoluminescence quantum yield (in ClCCl): 0.93

Structure (SMILES): COc1cccc(/C=C/c2ccccc2)c1
- photoluminescence quantum yield (in C1CCCCC1): 0.18
- photoluminescence quantum yield (in CC#N): 0.16
- photoluminescence quantum yield (in CC(C)O): 0.15
- photoluminescence quantum yield (in CCCCOCCCC): 0.2
- photoluminescence quantum yield (in CCOC(C)=O): 0.18
- photoluminescence quantum yield (in CCOCC): 0.18

Structure (SMILES): c1ccc(-c2nc3c4ccccc4c4ccccc4c3n2-c2ccc(-c3nc4c5ccccc5c5ccccc5c4n3-c3ccccc3)cc2)cc1
- photoluminescence quantum yield (in Cc1ccccc1): 0.82
